Key:
Assay type in all cases: cell-based
Details in all cases: 24 h incubation, visual reading
[1] = system: Staphylococcus aureus MRSA ATCC 43300; assay: MIC assay, S. aureus MRSA ATCC 43300
In short: (§1)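 MHB broth microdilution, twofold series, compounds 8–0.003 μg/ml; mid-log inoculum 5×10e5 CFU/mL; 37° C, 24 h; MIC read visually as lowest concentration without growth.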

[2] = system: Streptococcus pneumoniae MDR ATCC 700677; assay: MIC assay, S. pneumoniae MDR ATCC 700677
In short: as §1

[3] = system: Enterococcus faecium MDR Van A ATCC 51559; assay: MIC assay, E. faecium MDR Van A ATCC 51559
In short: as §1

Row | Compound | Minimum Inhibitory Concentration (MIC) Staph. aureus ATCC43300 [1] | Minimum Inhibitory Concentration (MIC) S. pneumoniae ATCC 700677 [2] | Minimum Inhibitory Concentration (MIC) E. faecium ATCC51559 [3]
1 | CCCCCCC[C@H](O)CC(=O)N[C@@H](CCCCN)C(=O)N[C@@H](CCCCN)C(=O)N[C@@H](CCCCNC(=O)[C@H]1NC(=O)[C@H]2NC(=O)[C@H](NC(=O)[C@@H]3NC(=O)[C@H](CC(N)=O)NC(=O)[C@H](NC(=O)[C@@H](CC(C)C)NC)[C@H](O)c4ccc(c(Cl)c4)Oc4cc3cc(c4O[C@@H]3O[C@H](CO)[C@@H](O)[C@H](O)[C@H]3O[C@H]3C[C@](C)(N)[C@H](O)[C@H](C)O3)Oc3ccc(cc3Cl)[C@H]2O)c2ccc(O)c(c2)-c2c(O)cc(O)cc21)C(=O)O [MCC_005506] | xxx (xxx = 0.1-<1) | xxx (xxx = 0.1-<1) | x (x = >4)
2 | CCCCCCCc1ccc(C(=O)NC(CCCCN)C(=O)NC(CCCCN)C(=O)NC(CCCCNC(=O)C2NC(=O)C3NC(=O)C(NC(=O)C4NC(=O)C(CC(N)=O)NC(=O)C(NC(=O)C(CC(C)C)NC)C(O)c5ccc(c(Cl)c5)Oc5cc4cc(c5OC4OC(CO)C(O)C(O)C4OC4CC(C)(N)C(O)C(C)O4)Oc4ccc(cc4Cl)C3O)c3ccc(O)c(c3)-c3c(O)cc(O)cc32)C(=O)NC)cc1 (stereo not drawn) [MCC_000500] | xxxxx (xxxxx = <0.01) | xxxxx (xxxxx = <0.01) | xx (xx = 1-4)
3 | CNC(=O)[C@H](CCCCNC(=O)[C@H]1NC(=O)[C@H]2NC(=O)[C@H](NC(=O)[C@@H]3NC(=O)[C@H](CC(N)=O)NC(=O)[C@H](NC(=O)[C@@H](CC(C)C)NC)[C@H](O)c4ccc(c(Cl)c4)Oc4cc3cc(c4O[C@@H]3O[C@H](CO)[C@@H](O)[C@H](O)[C@H]3O)Oc3ccc(cc3Cl)[C@H]2O)c2ccc(O)c(c2)-c2c(O)cc(O)cc21)NC(=O)[C@H](CCCCN)NC(=O)[C@H](CCCCN)NC(=O)[C@H](CCCCNC(=O)CCCOc1ccccc1)NC(=O)CCCOc1ccccc1 [MCC_000604] | xx (xx = 1-4) | xx (xx = 1-4) | x (x = >4)
4 | CCCCCCCC(=O)NCCCC[C@H](NC(=O)CCCCCCC)C(=O)N[C@@H](CCCCN)C(=O)N[C@@H](CCCCN)C(=O)N[C@@H](CCCCNC(=O)[C@H]1NC(=O)[C@H]2NC(=O)[C@H](NC(=O)[C@@H]3NC(=O)[C@H](CC(N)=O)NC(=O)[C@H](NC(=O)[C@@H](CC(C)C)NC)[C@H](O)c4ccc(c(Cl)c4)Oc4cc3cc(c4O[C@@H]3O[C@H](CO)[C@@H](O)[C@H](O)[C@H]3O[C@H]3C[C@](C)(N)[C@H](O)[C@H](C)O3)Oc3ccc(cc3Cl)[C@H]2O)c2ccc(O)c(c2)-c2c(O)cc(O)cc21)C(=O)NC [MCC_000654] | xxxxx (xxxxx = <0.01) | xxxx (xxxx = 0.01-<0.1) | xx (xx = 1-4)
5 | CCCCCCCCCC(=O)NC(CCCCN(C)C)C(=O)NCCCNC(=O)C1NC(=O)C2NC(=O)C(NC(=O)C3NC(=O)C(CC(N)=O)NC(=O)C(NC(=O)C(CC(C)C)NC)C(O)c4ccc(c(Cl)c4)Oc4cc3cc(c4OC3OC(CO)C(O)C(O)C3OC3CC(C)(N)C(O)C(C)O3)Oc3ccc(cc3Cl)C2O)c2ccc(O)c(c2)-c2c(O)cc(O)cc21 (stereo not drawn) [MCC_007339] | xxxx (xxxx = 0.01-<0.1) | xxxx (xxxx = 0.01-<0.1) | xx (xx = 1-4)
6 | CCCCCCCC(=O)NCCCCC(NC(=O)CCCCCCC)C(=O)NC(CCCCN)C(=O)NC(CCCCNC(=O)C1NC(=O)C2NC(=O)C(NC(=O)C3NC(=O)C(CC(N)=O)NC(=O)C(NC(=O)C(CC(C)C)NC)C(O)c4ccc(c(Cl)c4)Oc4cc3cc(c4OC3OC(CO)C(O)C(O)C3OC3CC(C)(N)C(O)C(C)O3)Oc3ccc(cc3Cl)C2O)c2ccc(O)c(c2)-c2c(O)cc(O)cc21)C(=O)NC (stereo not drawn) [MCC_000490] | xxxx (xxxx = 0.01-<0.1) | xxxxx (xxxxx = <0.01) | x (x = >4)
7 | CCCCCCCCC(=O)NC(CCCC[N+](C)(C)C)C(=O)NCCCNC(=O)C1NC(=O)C2NC(=O)C(NC(=O)C3NC(=O)C(CC(N)=O)NC(=O)C(NC(=O)C(CC(C)C)NC)C(O)c4ccc(c(Cl)c4)Oc4cc3cc(c4OC3OC(CO)C(O)C(O)C3OC3CC(C)(N)C(O)C(C)O3)Oc3ccc(cc3Cl)C2O)c2ccc(O)c(c2)-c2c(O)cc(O)cc21 (stereo not drawn) [MCC_007388] | xxx (xxx = 0.1-<1) | xx (xx = 1-4) | x (x = >4)
8 | CCCCCCCC(=O)NC(CCCCN)C(=O)NC(CCCCN)C(=O)NC(CCCCNC(=O)C1NC(=O)C2NC(=O)C(NC(=O)C3NC(=O)C(CC(N)=O)NC(=O)C(NC(=O)C(CC(C)C)NC)C(O)c4ccc(c(Cl)c4)Oc4cc3cc(c4OC3OC(CO)C(O)C(O)C3OC3CC(C)(N)C(O)C(C)O3)Oc3ccc(cc3Cl)C2O)c2ccc(O)c(c2)-c2c(O)cc(O)cc21)C(=O)NC (stereo not drawn) [MCC_000489] | xx (xx = 1-4) | xxx (xxx = 0.1-<1) | x (x = >4)
9 | CCCCCCc1ccc(C(=O)NC(CCCCN)C(=O)NC(CCCCN)C(=O)NC(CCCCNC(=O)C2NC(=O)C3NC(=O)C(NC(=O)C4NC(=O)C(CC(N)=O)NC(=O)C(NC(=O)C(CC(C)C)NC)C(O)c5ccc(c(Cl)c5)Oc5cc4cc(c5OC4OC(CO)C(O)C(O)C4OC4CC(C)(N)C(O)C(C)O4)Oc4ccc(cc4Cl)C3O)c3ccc(O)c(c3)-c3c(O)cc(O)cc32)C(=O)NC)cc1 (stereo not drawn) [MCC_000499] | xxxx (xxxx = 0.01-<0.1) | xxxx (xxxx = 0.01-<0.1) | xx (xx = 1-4)
10 | CNC(=O)[C@H](CCCCNC(=O)[C@H]1NC(=O)[C@H]2NC(=O)[C@H](NC(=O)[C@@H]3NC(=O)[C@H](CC(N)=O)NC(=O)[C@H](NC(=O)[C@@H](CC(C)C)NC)[C@H](O)c4ccc(c(Cl)c4)Oc4cc3cc(c4O[C@@H]3O[C@H](CO)[C@@H](O)[C@H](O)[C@H]3O)Oc3ccc(cc3Cl)[C@H]2O)c2ccc(O)c(c2)-c2c(O)cc(O)cc21)NC(=O)[C@H](CCCCN)NC(=O)[C@H](CCCCN)NC(=O)[C@H](CCCCNC(=O)c1ccc(Oc2ccc(F)cc2)cc1)NC(=O)c1ccc(Oc2ccc(F)cc2)cc1 [MCC_000651] | xxxxx (xxxxx = <0.01) | xxxx (xxxx = 0.01-<0.1) | xx (xx = 1-4)
11 | CCCCCCCC(=O)N[C@@H](CCCCN)C(=O)NCCNC(=O)[C@H]1NC(=O)[C@H]2NC(=O)[C@H](NC(=O)[C@@H]3NC(=O)[C@H](CC(N)=O)NC(=O)[C@H](NC(=O)[C@@H](CC(C)C)NC)[C@H](O)c4ccc(c(Cl)c4)Oc4cc3cc(c4O[C@@H]3O[C@H](CO)[C@@H](O)[C@H](O)[C@H]3O[C@H]3C[C@](C)(N)[C@H](O)[C@H](C)O3)Oc3ccc(cc3Cl)[C@H]2O)c2ccc(O)c(c2)-c2c(O)cc(O)cc21 [MCC_005183] | xxx (xxx = 0.1-<1) | xxx (xxx = 0.1-<1) | x (x = >4)
12 | CNC(=O)C(CCCCNC(=O)C1NC(=O)C2NC(=O)C(NC(=O)C3NC(=O)C(CC(N)=O)NC(=O)C(NC(=O)C(CC(C)C)NC)C(O)c4ccc(c(Cl)c4)Oc4cc3cc(c4OC3OC(CO)C(O)C(O)C3OC3CC(C)(N)C(O)C(C)O3)Oc3ccc(cc3Cl)C2O)c2ccc(O)c(c2)-c2c(O)cc(O)cc21)NC(=O)C(CCCCN)NC(=O)C(CCCCNC(=O)c1ccc(Oc2ccc(Cl)cc2)cc1)NC(=O)c1ccc(Oc2ccc(Cl)cc2)cc1 (stereo not drawn) [MCC_000517] | xxxx (xxxx = 0.01-<0.1) | xxxxxx | xxx (xxx = 0.1-<1)
13 | CCCCCCCCCCCCCC(=O)N[C@@H](CCCCN)C(=O)N[C@@H](CCCCNC(=O)[C@H]1NC(=O)[C@H]2NC(=O)[C@H](NC(=O)[C@@H]3NC(=O)[C@H](CC(N)=O)NC(=O)[C@H](NC(=O)[C@@H](CC(C)C)NC)[C@H](O)c4ccc(c(Cl)c4)Oc4cc3cc(c4O[C@@H]3O[C@H](CO)[C@@H](O)[C@H](O)[C@H]3O[C@H]3C[C@](C)(N)[C@H](O)[C@H](C)O3)Oc3ccc(cc3Cl)[C@H]2O)c2ccc(O)c(c2)-c2c(O)cc(O)cc21)C(=O)NC [MCC_000627] | xxxxx (xxxxx = <0.01) | xxxxx (xxxxx = <0.01) | xx (xx = 1-4)

Reference: patent publication US10947271B2, “Antibacterial agents” (THE UNIVERSITY OF QUEENSLAND, priority 2014, dated 2021)
